US8192962B2, “Processes for detecting toxic substances” (Daikin Industries, Ltd., priority 2001, dated 2012)

Tests used:
DNA repair protein genes = assay: DNA chip mRNA expression in yeast, DNA repair protein genes (Table 3); type: cell-based, Saccharomyces cerevisiae S288C; conditions: incubated two hours, concentrations as in the 1st table
In short: (§1)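 In this screen, yeast in logarithmic growth are challenged for two hours with a toxic substance at a non-lethal inhibitory concentration. Their mRNA, converted to Cy3- or Cy5-labeled cDNA, hybridizes at 65° C. to a chip spanning every yeast gene, and expression is expressed as a ratio to untreated cells.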

[1] = test system: Detoxification protein genes; assay: DNA chip mRNA expression in yeast, detoxification protein genes (Table 8); type: cell-based, Saccharomyces cerevisiae S288C
In short: as §1

Compound: C=CC=O [(14), acrolein]
- The level of expressed mRNA in the presence of chemical substance/The level of expressed mRNA in the absence of chemical substance (DNA repair protein genes; yeast gene YAL015C): 1.6
- The level of expressed mRNA in the presence of chemical substance/The level of expressed mRNA in the absence of chemical substance (DNA repair protein genes; yeast gene YAR007C): 1.4
- The level of expressed mRNA in the presence of chemical substance/The level of expressed mRNA in the absence of chemical substance (DNA repair protein genes; yeast gene YBL019W): 1.1
- The level of expressed mRNA in the presence of chemical substance/The level of expressed mRNA in the absence of chemical substance (DNA repair protein genes; yeast gene YBR073W): 1.0
- The level of expressed mRNA in the presence of chemical substance/The level of expressed mRNA in the absence of chemical substance (DNA repair protein genes; yeast gene YBR272C): 1.0
- The level of expressed mRNA in the presence of chemical substance/The level of expressed mRNA in the absence of chemical substance (DNA repair protein genes; yeast gene YCR014C): 1.0
- The level of expressed mRNA in the presence of chemical substance/The level of expressed mRNA in the absence of chemical substance (DNA repair protein genes; yeast gene YDL017W): 1.3
- The level of expressed mRNA in the presence of chemical substance/The level of expressed mRNA in the absence of chemical substance (DNA repair protein genes; yeast gene YDL059C): 4.7
- The level of expressed mRNA in the presence of chemical substance/The level of expressed mRNA in the absence of chemical substance (DNA repair protein genes; yeast gene YDL200C): 1.8
- The level of expressed mRNA in the presence of chemical substance/The level of expressed mRNA in the absence of chemical substance (DNA repair protein genes; yeast gene YDR054C): 1.1
- The level of expressed mRNA in the presence of chemical substance/The level of expressed mRNA in the absence of chemical substance (DNA repair protein genes; yeast gene YDR369C): 0.7
- The level of expressed mRNA in the presence of chemical substance/The level of expressed mRNA in the absence of chemical substance (DNA repair protein genes; yeast gene YEL019C): 1.7
- The level of expressed mRNA in the presence of chemical substance/The level of expressed mRNA in the absence of chemical substance (DNA repair protein genes; yeast gene YEL037C): 1.0
- The level of expressed mRNA in the presence of chemical substance/The level of expressed mRNA in the absence of chemical substance (DNA repair protein genes; yeast gene YER162C): 0.8
- The level of expressed mRNA in the presence of chemical substance/The level of expressed mRNA in the absence of chemical substance (DNA repair protein genes; yeast gene YFL014W): 7.3
- The level of expressed mRNA in the presence of chemical substance/The level of expressed mRNA in the absence of chemical substance (DNA repair protein genes; yeast gene YGL058W): 1.3
- The level of expressed mRNA in the presence of chemical substance/The level of expressed mRNA in the absence of chemical substance (DNA repair protein genes; yeast gene YGL091C): 3.1
- The level of expressed mRNA in the presence of chemical substance/The level of expressed mRNA in the absence of chemical substance (DNA repair protein genes; yeast gene YGL127C): 1.0
- The level of expressed mRNA in the presence of chemical substance/The level of expressed mRNA in the absence of chemical substance (DNA repair protein genes; yeast gene YGL163C): 1.6
- The level of expressed mRNA in the presence of chemical substance/The level of expressed mRNA in the absence of chemical substance (DNA repair protein genes; yeast gene YGL249W): 1.9
- The level of expressed mRNA in the presence of chemical substance/The level of expressed mRNA in the absence of chemical substance (DNA repair protein genes; yeast gene YGR180C): 0.9
- The level of expressed mRNA in the presence of chemical substance/The level of expressed mRNA in the absence of chemical substance (DNA repair protein genes; yeast gene YGR231C): 2.2
- The level of expressed mRNA in the presence of chemical substance/The level of expressed mRNA in the absence of chemical substance (DNA repair protein genes; yeast gene YGR258C): 1.2
- The level of expressed mRNA in the presence of chemical substance/The level of expressed mRNA in the absence of chemical substance (DNA repair protein genes; yeast gene YHR164C): 1.3
- The level of expressed mRNA in the presence of chemical substance/The level of expressed mRNA in the absence of chemical substance (DNA repair protein genes; yeast gene YIL036W): 1.1
- The level of expressed mRNA in the presence of chemical substance/The level of expressed mRNA in the absence of chemical substance (DNA repair protein genes; yeast gene YIL072W): 2.0
- The level of expressed mRNA in the presence of chemical substance/The level of expressed mRNA in the absence of chemical substance (DNA repair protein genes; yeast gene YIL143C): 1.0
- The level of expressed mRNA in the presence of chemical substance/The level of expressed mRNA in the absence of chemical substance (DNA repair protein genes; yeast gene YIL153W): 1.0
- The level of expressed mRNA in the presence of chemical substance/The level of expressed mRNA in the absence of chemical substance (DNA repair protein genes; yeast gene YIR002C): 1.1
- The level of expressed mRNA in the presence of chemical substance/The level of expressed mRNA in the absence of chemical substance (DNA repair protein genes; yeast gene YJL026W): 1.0
- The level of expressed mRNA in the presence of chemical substance/The level of expressed mRNA in the absence of chemical substance (DNA repair protein genes; yeast gene YJR046W): 1.0
- The level of expressed mRNA in the presence of chemical substance/The level of expressed mRNA in the absence of chemical substance (DNA repair protein genes; yeast gene YJR052W): 1.4
- The level of expressed mRNA in the presence of chemical substance/The level of expressed mRNA in the absence of chemical substance (DNA repair protein genes; yeast gene YKL145W): 1.0
- The level of expressed mRNA in the presence of chemical substance/The level of expressed mRNA in the absence of chemical substance (DNA repair protein genes; yeast gene YLR103C): 1.0
- The level of expressed mRNA in the presence of chemical substance/The level of expressed mRNA in the absence of chemical substance (DNA repair protein genes; yeast gene YLR233C): 1.1
- The level of expressed mRNA in the presence of chemical substance/The level of expressed mRNA in the absence of chemical substance (DNA repair protein genes; yeast gene YLR288C): 1.2
- The level of expressed mRNA in the presence of chemical substance/The level of expressed mRNA in the absence of chemical substance (DNA repair protein genes; yeast gene YML032C): 1.0
- The level of expressed mRNA in the presence of chemical substance/The level of expressed mRNA in the absence of chemical substance (DNA repair protein genes; yeast gene YML058W): 1.1
- The level of expressed mRNA in the presence of chemical substance/The level of expressed mRNA in the absence of chemical substance (DNA repair protein genes; yeast gene YMR035W): 1.3
- The level of expressed mRNA in the presence of chemical substance/The level of expressed mRNA in the absence of chemical substance (DNA repair protein genes; yeast gene YMR072W): 1.2
- The level of expressed mRNA in the presence of chemical substance/The level of expressed mRNA in the absence of chemical substance (DNA repair protein genes; yeast gene YMR096W): 4.7
- The level of expressed mRNA in the presence of chemical substance/The level of expressed mRNA in the absence of chemical substance (DNA repair protein genes; yeast gene YMR284W): 1.2
- The level of expressed mRNA in the presence of chemical substance/The level of expressed mRNA in the absence of chemical substance (DNA repair protein genes; yeast gene YNL213C): 1.8
- The level of expressed mRNA in the presence of chemical substance/The level of expressed mRNA in the absence of chemical substance (DNA repair protein genes; yeast gene YNL250W): 1.6
- The level of expressed mRNA in the presence of chemical substance/The level of expressed mRNA in the absence of chemical substance (DNA repair protein genes; yeast gene YNL261W): 1.4
- The level of expressed mRNA in the presence of chemical substance/The level of expressed mRNA in the absence of chemical substance (DNA repair protein genes; yeast gene YNL312W): 1.1
- The level of expressed mRNA in the presence of chemical substance/The level of expressed mRNA in the absence of chemical substance (DNA repair protein genes; yeast gene YOL043C): 1.5
- The level of expressed mRNA in the presence of chemical substance/The level of expressed mRNA in the absence of chemical substance (DNA repair protein genes; yeast gene YOR005C): 1.2
- The level of expressed mRNA in the presence of chemical substance/The level of expressed mRNA in the absence of chemical substance (DNA repair protein genes; yeast gene YOR386W): 0.9
- The level of expressed mRNA in the presence of chemical substance/The level of expressed mRNA in the absence of chemical substance (DNA repair protein genes; yeast gene YPL022W): 0.9
- The level of expressed mRNA in the presence of chemical substance/The level of expressed mRNA in the absence of chemical substance (DNA repair protein genes; yeast gene YPL164C): 0.9
- The level of expressed mRNA in the presence of chemical substance/The level of expressed mRNA in the absence of chemical substance (DNA repair protein genes; yeast gene YPL194W): 1.1
- The level of expressed mRNA in the presence of chemical substance/The level of expressed mRNA in the absence of chemical substance (DNA repair protein genes; yeast gene YPR025C): 1.3
- The level of expressed mRNA in the presence of chemical substance/The level of expressed mRNA in the absence of chemical substance ([1]; yeast gene YBL064C): 5.0
- The level of expressed mRNA in the presence of chemical substance/The level of expressed mRNA in the absence of chemical substance ([1]; yeast gene YBR008C): 4.1
- The level of expressed mRNA in the presence of chemical substance/The level of expressed mRNA in the absence of chemical substance ([1]; yeast gene YBR145W): 2.2
